Results taken from PMC10112521, “High-throughput AR dimerization assay identifies androgen disrupting chemicals and metabolites” (Frontiers in Toxicology, 2023).
Several values for one entry are separate records, joined by “and”; a condition that tells them apart may be missing. Identical values can stand only once. Like-named read-outs stand apart in the source and are kept apart here.

How the values were obtained:
[1] = tested on: full-length human AR and the receptor interacting domain (RID) of SRC1; set-up: method as in U.S. EPA, 2002b; conditions: cited from earlier work
AR2 cells (HepG2-AR2) [2] = experiment: Alamar Blue (resazurin) post hoc cell viability / cytotoxicity assay in AR2 cells; conditions: spid Viability, sheet antagonist_fits; for hill_tp (Hill model top): 0 where win_model is Constant
Experimental: (§1) For antagonist mode and cytotoxicity data, well-level normalized response (resp) was calculated as: resp=100 * RLU−bval/pval−bval where pval is the median RLU value of the MEC positive control wells (minimum four wells).

human AR [3] = target: T1, human AR (Homo sapiens, UniProt P10275); experiment: AR2 assay, antagonist mode: disruption of R1881 (10 nM)-induced AR homodimerization in HepG2-AR2 cells; format: cell-based
T1 sequence (P10275 1-920) 1: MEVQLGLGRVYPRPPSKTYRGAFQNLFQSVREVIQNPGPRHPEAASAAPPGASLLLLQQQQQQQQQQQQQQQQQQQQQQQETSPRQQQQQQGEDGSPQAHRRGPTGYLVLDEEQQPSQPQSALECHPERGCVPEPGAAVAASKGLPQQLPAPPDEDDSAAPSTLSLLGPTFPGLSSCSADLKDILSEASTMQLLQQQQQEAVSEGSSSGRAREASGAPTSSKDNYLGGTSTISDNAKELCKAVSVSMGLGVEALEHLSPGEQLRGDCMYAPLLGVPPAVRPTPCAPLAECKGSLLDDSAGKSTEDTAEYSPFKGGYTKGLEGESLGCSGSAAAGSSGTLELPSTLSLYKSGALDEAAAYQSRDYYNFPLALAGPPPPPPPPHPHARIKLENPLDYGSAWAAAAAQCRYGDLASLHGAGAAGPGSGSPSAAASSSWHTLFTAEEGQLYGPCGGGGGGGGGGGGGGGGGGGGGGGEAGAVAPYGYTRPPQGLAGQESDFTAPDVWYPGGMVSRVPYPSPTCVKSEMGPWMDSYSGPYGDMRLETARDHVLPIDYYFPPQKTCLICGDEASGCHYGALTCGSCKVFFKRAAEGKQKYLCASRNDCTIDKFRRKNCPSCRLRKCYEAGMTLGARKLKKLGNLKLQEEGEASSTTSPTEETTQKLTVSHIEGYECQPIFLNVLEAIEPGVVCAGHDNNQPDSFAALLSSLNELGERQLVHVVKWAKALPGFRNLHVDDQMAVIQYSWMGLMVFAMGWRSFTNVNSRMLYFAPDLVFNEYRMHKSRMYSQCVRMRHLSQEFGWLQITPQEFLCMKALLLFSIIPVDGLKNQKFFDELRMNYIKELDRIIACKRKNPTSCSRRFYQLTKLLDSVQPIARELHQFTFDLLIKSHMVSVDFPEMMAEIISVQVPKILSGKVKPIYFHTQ
T1 sequence (P10275 1-920) 2: T1 sequence (P10275 1-920) 1

[4] = tested on: human AR (LBD and AF2 domains) and the RID of human SRC2; set-up: method as in U.S. EPA, 2002b; conditions: cited from earlier work
human AR [5] = target: T1, human AR; experiment: cell-based; set-up: species or system AR2 cells (HepG2-AR2); NanoLuc complementation AR homodimerization, antagonist mode, loss of agonist-induced luminescence, AC50 by Hill fit; conditions: hill_ga, antagonist mode, 10 nM agonist stimulus, 18 h, no CYP expressed
AR = tested on: AR; set-up: method as in Kleinstreuer et al., 2017; conditions: 2017, cited from earlier work; for Antagonist reference: AR antagonist reference class ref Kleinstreuer et al.; for Agonist reference: AR agonist reference class ref Kleinstreuer et al.
AR2 cells (HepG2-AR2) [6] = tested on: AR2 cells (HepG2-AR2)
Experimental: as §1

human AR [7] = target: T1, human AR; experiment: AR2 assay, agonist mode: ligand-dependent AR homodimerization (NanoBiT luciferase complementation) in stable HepG2-AR2 cells; format: cell-based; set-up: Emax: dose or concentration left out as unconfirmed;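 on hill tp: Log2 fold change of luminescence over DMSO vehicle wells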;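 on max med: Log2 fold change of luminescence over DMSO vehicle wells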
human AR [8] = target: T1, human AR; experiment: cell-based; set-up: species or system AR2 cells (HepG2-AR2); NanoLuc complementation AR homodimerization, agonist mode, luminescence gain, AC50 by Hill fit; conditions: hill_ga
[9] = tested on: human AR (LBD and AF2 domains) and the RID of human SRC2; set-up: method as in U.S. EPA, 2002b; conditions: activity call, agonist mode, 2 h; invitroDBv3.4 ref U.S. EPA, 2002b; cited from earlier work
human AR [10] = target: T1, human AR
human AR [11] = target: T1, human AR; experiment: AR2 assay, antagonist mode, retrofitted with human CYP metabolism by mRNA transfection (biogroups no RNA, Bgal, ten CYPs)
human AR [12] = target: T1, human AR; experiment: cell-based
[13] = activity call, 8 h, single protocol detects agonists and antagonists, invitroDBv3.4 ref U.S. EPA, 2002b
[14] = activity call, 16 h, single protocol detects agonists and antagonists, invitroDBv3.4 ref U.S. EPA, 2002b
[15] = activity call, antagonist mode, 18 h
[16] = spid AR_antagonist, sheet antagonist_fits
[17] = spid AR_antagonist, sheet antagonist_fits, 0 where win_model is Constant
[18] = activity call, antagonist mode, 2 h, invitroDBv3.4 ref U.S. EPA, 2002b
[19] = sheet agonist_fits, Hill model gain slope (Hill coefficient), 0 given where win_model is Constant
[20] = sheet agonist_fits, Hill model top (efficacy), 0 given where win_model is Constant
[21] = sheet agonist_fits, maximum median response
[22] = sheet agonist_fits, winning concentration-response model (Constant, Hill, Gain-Loss)
[23] = spid=Bgal, agonist mode, 18 h, no CYP expressed

CC12CC1(C)C(=O)N(c1cc(Cl)cc(Cl)c1)C2=O (stereo not drawn) [Procymidone]
OT 8 hr [1, 13]: 0 | OT 16 hr [1, 14]: 0 | max_med (maximum median response) (AR2 cells (HepG2-AR2) [2]): 14.9874 | hill_tp (Hill model top) (AR2 cells (HepG2-AR2) [2]): 19.1789 | max_med (maximum median response) (human AR [3]): 95.0019 | AR2 antagonist (human AR [3]; [15]): 1 | win_model (winning concentration-response model) (human AR [3]; [16]): Hill | hill_gw (Hill model slope) (human AR [3]; [17]): 0.938 | UPitt antagonist [4, 18]: 1 | AC50 (human AR [5]; spid=Bgal): 3840 nM | AC50 (human AR [5]; spid=No_RNA): 4230 nM | Antagonist reference (AR): Weak | Antagonist reference (AR; Supplementary Table S1): Weak | hill_ga (Hill model log AC50) (AR2 cells (HepG2-AR2) [6]): -1.506 | hill_gw (human AR [7]; [19]): 8 | hill_tp (human AR [7]; [20]): 0.2332 | max_med (human AR [7]; [21]): 0.2214 | win_model (human AR [7]; [22]): Hill | AC50 (human AR [8]; [23]): > 99900 nM

CC(=O)O[C@]1(C(C)=O)CC[C@H]2[C@@H]3C=C(Cl)C4=CC(=O)[C@@H]5C[C@@H]5[C@]4(C)[C@H]3CC[C@@]21C [Cyproterone acetate]
OT 8 hr [1, 13]: 1 | OT 16 hr [1, 14]: 1 | max_med (maximum median response) (AR2 cells (HepG2-AR2) [2]): 16.8337 | hill_tp (Hill model top) (AR2 cells (HepG2-AR2) [2]): 12.2685 | UPitt antagonist [4, 18]: 1 | UPitt agonist [9]: 1 | Agonist reference (AR): Weak | Antagonist reference (AR): Moderate | Agonist reference (AR; Supplementary Table S1): Weak | Antagonist reference (AR; Supplementary Table S1): Moderate

CC1(C)[C@H](C(=O)O[C@H](C#N)c2cccc(Oc3ccccc3)c2)[C@@H]1C=C(Br)Br [Deltamethrin]
OT 8 hr [1, 13]: 0 | OT 16 hr [1, 14]: 0 | max_med (maximum median response) (AR2 cells (HepG2-AR2) [2]): 34.81 | hill_tp (Hill model top) (AR2 cells (HepG2-AR2) [2]): 34.1073 | AR2 antagonist (human AR [3]; [15]): 0 | max_med (maximum median response) (human AR [3]; [16]): 65.39 | win_model (winning concentration-response model) (human AR [3]; [16]): Hill | hill_gw (Hill model slope) (human AR [3]; [17]): 2.614 | hill_tp (Hill model top) (human AR [3]; [17]): 65.8008 | UPitt antagonist [4, 18]: 0 | AC50 (human AR [5]; spid=Bgal): 12300 nM | AC50 (human AR [5]; spid=No_RNA): 12800 nM | UPitt agonist [9]: 0 | Agonist reference (AR): Inactive | Antagonist reference (AR): Inactive | Agonist reference (AR; Supplementary Table S1): Inactive | Antagonist reference (AR; Supplementary Table S1): Inactive | AR2 agonist (human AR [7]; activity call, agonist mode, 18 h): 0 | hill_tp (human AR [7]; [20]): 0 | max_med (human AR [7]; [21]): 0.0322 | win_model (human AR [7]; [22]): Constant

C[C@]1(O)CC[C@H]2[C@@H]3CCC4=CC(=O)CCC4=C3C=C[C@@]21C [R1881, (17b)-17-hydroxy-17-methyl-estra-4,9,11-trien-3-one]
effect of CYP metabolism on the AR2 assay controls (human AR [10]): unimpacted by CYP metabolism | hill_gw (human AR [7]): 1.162 | hill_tp (human AR [7]): 6.231 | max_med (human AR [7]): 6.236 | win_model (human AR [7]): Hill | Emax (human AR [7]; read-out: maximal response): > 95%

C[C@]12CC[C@H]3C(=CCc4cc(O)ccc43)[C@@H]1CCC2=O [Equilin]
hill_tp (Hill model top) (human AR [3]): 92.4898 | max_med (maximum median response) (human AR [3]): 92.3262 | win_model (winning concentration-response model) (human AR [3]; [16]): Hill | hill_gw (Hill model slope) (human AR [3]; [17]): 1.131 | AC50 (human AR [5]; spid=Bgal): 487 nM | AC50 (human AR [5]; spid=No_RNA): 861 nM | effect of CYP metabolism on AR antagonist activity (human AR [11]; CYP2C19 biogroup): reduced the potency | hill_tp (Hill model top) (AR2 cells (HepG2-AR2) [6]): 7.023 | max_med (maximum median response) (AR2 cells (HepG2-AR2) [6]; spid Viability, sheet antagonist_fits): 12.8285 | hill_gw (human AR [7]; [19]): 1.401 | hill_tp (human AR [7]; [20]): 3.175 | max_med (human AR [7]; [21]): 3.181 | win_model (human AR [7]; [22]): Hill | AC50 (human AR [8]; [23]): 2140 nM | AC50 (human AR [8]; spid=No_RNA, agonist mode, 18 h, no CYP expressed): 2290 nM

C[C@]12CCC(=O)C=C1CC[C@@H]1[C@@H]2CC[C@@]2(C)[C@H]1CC[C@]2(C)O [17-Methyltestosterone]
OT 8 hr [1]: 1 | OT 16 hr [1]: 1 | max_med (maximum median response) (AR2 cells (HepG2-AR2) [2]): 23.6208 | hill_tp (Hill model top) (AR2 cells (HepG2-AR2) [2]): 30.9505 | UPitt antagonist [4]: 0 | UPitt agonist [9]: 0 | Agonist reference (AR): Strong | Antagonist reference (AR): Inactive | Agonist reference (AR; Supplementary Table S1): Strong

CCC(=O)O[C@H]1CC[C@H]2[C@@H]3CCC4=CC(=O)CC[C@]4(C)[C@H]3CC[C@]12C [Testosterone propionate]
OT 8 hr [1]: 1 | OT 16 hr [1]: 1 | max_med (maximum median response) (AR2 cells (HepG2-AR2) [2]): 32.5936 | hill_tp (Hill model top) (AR2 cells (HepG2-AR2) [2]): 43.3025 | AR2 antagonist (human AR [3]): 1 | hill_gw (Hill model slope) (human AR [3]): 1.115 | hill_tp (Hill model top) (human AR [3]): 100.853 | max_med (maximum median response) (human AR [3]): 102.627 | win_model (winning concentration-response model) (human AR [3]): Hill | UPitt antagonist [4]: 0 | UPitt agonist [9]: 0 | change of AC50 value (human AR [11]; median across all biogroups versus CYP2C8, CYP2C9, CYP2C19, CYP3A4): more than 2 fold | Agonist reference (AR): Strong | Antagonist reference (AR): Inactive | Agonist reference (AR; Supplementary Table S1): Strong | AC50 (human AR [12]): 169 nM and 529 nM and 333 nM and 440 nM and 380 nM | AR2 agonist (human AR [7]): 1 | hill_gw (human AR [7]): 0.9765 | hill_tp (human AR [7]): 2.087 | max_med (human AR [7]): 2.0998 | win_model (human AR [7]): Gain-Loss | AC50 (human AR [8]): 234 nM
